Data set [1] has as its system HT-29. Kind of data set: Anti-necroptic activity in human HT-29 cells assessed as inhibition of TSZ (TNFalpha, Smac mimetic and z-VAD-FMK) induced necroptosis incubated for 24 hrs by celltiter-glo luminescent cell viability assay. In kind it is functional, cell-based. Conditions: HT-29, 24 h.
Data set [2] addresses T1, Mixed lineage kinase domain-like protein (Homo sapiens) (UniProt Q8NB16).
T1 sequence (whole entry): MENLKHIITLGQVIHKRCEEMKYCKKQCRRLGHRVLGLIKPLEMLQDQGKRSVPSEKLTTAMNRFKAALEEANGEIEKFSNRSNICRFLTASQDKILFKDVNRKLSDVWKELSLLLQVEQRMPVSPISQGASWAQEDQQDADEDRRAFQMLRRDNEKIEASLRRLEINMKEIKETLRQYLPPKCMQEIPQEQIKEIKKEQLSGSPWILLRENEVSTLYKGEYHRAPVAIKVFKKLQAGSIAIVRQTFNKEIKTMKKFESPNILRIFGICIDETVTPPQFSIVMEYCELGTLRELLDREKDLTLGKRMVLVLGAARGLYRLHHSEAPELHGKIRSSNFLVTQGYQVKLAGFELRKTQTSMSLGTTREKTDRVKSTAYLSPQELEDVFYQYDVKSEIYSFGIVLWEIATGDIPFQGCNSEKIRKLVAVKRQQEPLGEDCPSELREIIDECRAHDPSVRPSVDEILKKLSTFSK
As to the kind of experiment: Inhibition of human MLKL in human HT-29 cells assessed as inhibition of TSZ (TNFalpha, Smac mimetic and z-VAD-FMK) induced MLKL oligomerization at 200 nM and measured after 6 hrs by immunoblot assay. It is filed as cell-based.

The subject of data set [3] is HT-29. As to the kind of experiment: Anti-necroptic activity in human HT-29 KO cells expressing MLKL F148A mutant assessed as inhibition of TSZ (TNFalpha, Smac mimetic and z-VAD-FMK) induced MLKL F148A mutant mediated necroptosis incubated for 24 hrs by celltiter-glo luminescent cell viability assay. It is filed as functional, cell-based. For orientation: In ATP-based viability assays light output follows the ATP content of the culture.

The subject of data set [4] is HT-29. As to the kind of experiment: Anti-necroptic activity in human HT-29 KO cells expressing MLKL K157A mutant assessed as inhibition of TSZ (TNFalpha, Smac mimetic and z-VAD-FMK) induced MLKL K157A mutant mediated necroptosis incubated for 24 hrs by celltiter-glo luminescent cell viability assay. In kind it is functional, cell-based.
A short description of data set [5]: GSH reactivity in DPBS buffer assessed as conjugation half life by UPLC-MS analysis. In kind it is ADME. The settings on record: glutathione (GSH) in DPBS buffer.
The target of data set [6] is T2, Receptor-interacting serine/threonine-protein kinase 1 (Homo sapiens) (UniProt Q13546).
T2 sequence (whole entry): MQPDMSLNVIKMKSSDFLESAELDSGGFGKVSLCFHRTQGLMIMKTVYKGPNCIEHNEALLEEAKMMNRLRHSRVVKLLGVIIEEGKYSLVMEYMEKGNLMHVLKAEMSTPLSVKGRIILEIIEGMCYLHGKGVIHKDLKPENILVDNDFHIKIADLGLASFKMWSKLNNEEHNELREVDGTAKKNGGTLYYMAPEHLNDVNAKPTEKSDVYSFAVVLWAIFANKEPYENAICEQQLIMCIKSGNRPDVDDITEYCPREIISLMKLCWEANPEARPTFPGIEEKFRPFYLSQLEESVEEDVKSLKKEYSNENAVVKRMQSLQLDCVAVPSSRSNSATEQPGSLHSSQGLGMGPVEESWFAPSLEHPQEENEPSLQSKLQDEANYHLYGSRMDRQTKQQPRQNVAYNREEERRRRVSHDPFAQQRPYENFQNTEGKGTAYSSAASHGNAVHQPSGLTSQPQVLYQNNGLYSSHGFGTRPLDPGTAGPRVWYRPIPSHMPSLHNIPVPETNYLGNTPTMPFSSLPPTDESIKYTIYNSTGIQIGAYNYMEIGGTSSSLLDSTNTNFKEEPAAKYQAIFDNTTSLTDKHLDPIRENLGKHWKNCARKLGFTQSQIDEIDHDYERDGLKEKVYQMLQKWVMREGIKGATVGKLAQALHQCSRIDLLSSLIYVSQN
As to the kind of experiment: Inhibition of TSZ (TNFalpha, Smac mimetic and z-VAD-FMK) induced RIPK1 phosphorylation in human HT-29 cells assessed as decrease in phosphorylated RIPK1 level incubated for 8 hrs by western blot analysis. In kind it is cell-based. For orientation: A western blot detects proteins with antibodies after separation by electrophoresis.

Another data set relates to MEF. Kind of data set: Anti-necroptic activity in mouse MEF cells assessed as inhibition of TSZ (TNFalpha, Smac mimetic and z-VAD-FMK) induced necroptosis incubated for 24 hrs by celltiter-glo luminescent cell viability assay. It is filed as functional, cell-based.
The target in data set [7] is T1, Mixed lineage kinase domain-like protein (Homo sapiens). Kind of data set: Inhibition of FLAG-tagged human MLKL in human HT-29 cells assessed as inhibition of TSZ (TNFalpha, Smac mimetic and z-VAD-FMK) induced MLKL phosphorylation at 1 uM and measured after 8 hrs by Hoechst 33342 staining based immunofluorescence analysis. In kind it is cell-based.
Data set [8] deals with Receptor-interacting serine/threonine-protein kinase 3 (Homo sapiens) (UniProt Q9Y572). Kind of data set: Inhibition of full length RIP3 (unknown origin) assessed as substrate phosphorylation using MBP and ATP as substrate at 1 uM preincubated for 15 mins followed by substrate addition and measured after 90 mins by ADP-Glo luminescence assay; values are per cent of control. Conditions: time 105.0 min. On the technique in general: ADP-Glo first removes unused ATP, then detects ADP through luciferase.
Chain of Receptor-interacting serine/threonine-protein kinase 3 (Homo sapiens) (Q9Y572 whole entry, looked up): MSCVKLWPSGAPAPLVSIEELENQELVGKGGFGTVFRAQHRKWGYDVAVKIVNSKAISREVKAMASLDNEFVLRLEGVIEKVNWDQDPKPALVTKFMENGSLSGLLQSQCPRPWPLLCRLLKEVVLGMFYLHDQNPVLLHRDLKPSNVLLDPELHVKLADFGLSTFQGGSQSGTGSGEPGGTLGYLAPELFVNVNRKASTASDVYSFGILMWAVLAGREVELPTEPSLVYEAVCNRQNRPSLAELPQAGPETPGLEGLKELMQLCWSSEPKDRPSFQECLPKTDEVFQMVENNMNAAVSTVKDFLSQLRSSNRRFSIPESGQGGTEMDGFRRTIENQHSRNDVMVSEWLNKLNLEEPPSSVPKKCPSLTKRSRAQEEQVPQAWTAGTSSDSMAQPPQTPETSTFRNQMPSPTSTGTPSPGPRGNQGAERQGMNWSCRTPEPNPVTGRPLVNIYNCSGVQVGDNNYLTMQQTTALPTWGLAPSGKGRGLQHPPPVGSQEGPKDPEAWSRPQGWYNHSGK

Data set [9] shares this target. Kind of data set: Inhibition of full length RIP3 (unknown origin) assessed as substrate phosphorylation using MBP and ATP as substrate at 10 uM preincubated for 15 mins followed by substrate addition and measured after 90 mins by ADP-Glo luminescence assay; values are per cent of control. Conditions: time 105.0 min.
Data set [10] has as its target T2, Receptor-interacting serine/threonine-protein kinase 1 (Homo sapiens). Kind of data set: Inhibition of RIP1 (1 to 375 residues) (unknown origin) assessed as substrate phosphorylation using MBP and ATP as substrate at 1 uM preincubated for 15 mins followed by substrate addition and measured after 90 mins by ADP-Glo luminescence assay; values are per cent of control. The settings on record: time 105.0 min.

Data set [11] shares this target. Kind of data set: Inhibition of RIP1 (1 to 375 residues) (unknown origin) assessed as substrate phosphorylation using MBP and ATP as substrate at 10 uM preincubated for 15 mins followed by substrate addition and measured after 90 mins by ADP-Glo luminescence assay; values are per cent of control. Conditions: time 105.0 min.
For data set [12], the target named is T1, Mixed lineage kinase domain-like protein (Homo sapiens). As to the kind of experiment: Inhibition of human MLKL in human HT-29 cells assessed as inhibition of TSZ (TNFalpha, Smac mimetic and z-VAD-FMK) induced MLKL oligomerization at 5 uM and measured after 6 hrs by immunoblot assay. It is filed as cell-based.
In data set [13] the test system is HT-29. Kind of data set: Anti-necroptic activity in human HT-29 cells assessed as inhibition of TSZ induced necroptosis incubated for 5 min followed by compound washout and further induced with TSZ by celltiter-glo luminescent cell viability assay. In kind it is functional, cell-based. Conditions: HT-29, 5 min.
Data set [14] deals with HT-29. Kind of data set: Anti-necroptic activity in human HT-29 cells assessed as inhibition of TSZ induced necroptosis incubated for 1 hr followed by compound washout and further induced with TSZ by celltiter-glo luminescent cell viability assay. In kind it is functional, cell-based. The settings on record: HT-29, 1 h.
For data set [15], the system named is HT-29. As to the kind of experiment: Anti-necroptic activity in human HT-29 cells assessed as inhibition of TSZ induced necroptosis incubated for 3 hr followed by compound washout and further induced with TSZ by celltiter-glo luminescent cell viability assay. It is filed as functional, cell-based. The settings on record: HT-29, 3 h.
Data set [16] is described as follows: GSH reactivity in DPBS buffer assessed as fold decrease in reaction rate by UPLC-MS analysis relative to control. It is filed as ADME.
Data set [17] concerns the target T1, Mixed lineage kinase domain-like protein (Homo sapiens). Kind of data set: Covalent binding affinity to human recombinant MLKL at Cys86 residue assessed as covalent additive product formation by LC-MS/MS analysis.
Data set [18] has the same target. As to the kind of experiment: Displacement of biotin-tagged TCI3136 binding from human recombinant MLKL at Cys86 residues in human HT-29 cell lysate assessed as biotin labeled ligand-protein complex pull down at 5 uM preincubated with compound for 1 hr followed by probe addition for 1 hrs and further incubated with biotinylation of probe by click chemistry reaction for 2 hrs by pull-down assay. In kind it is subcellular. The settings on record: time 4.0 hrs.

Data set [19] has the same target. As to the kind of experiment: Inhibition of human MLKL in human HT-29 cells assessed as inhibition of TSZ (TNFalpha, Smac mimetic and z-VAD-FMK) induced MLKL oligomerization at 1 uM and measured after 6 hrs by immunoblot assay. In kind it is cell-based.
For data set [20] the target is unchanged. As to the kind of experiment: Inhibition of human MLKL in human HT-29 cells assessed as inhibition of TSZ (TNFalpha, Smac mimetic and z-VAD-FMK) induced MLKL translocation to cell membrane at 1 uM and measured after 8 hrs by western blot analysis. In kind it is cell-based.
The test system of data set [21] is HT-29. As to the kind of experiment: Anti-necroptic activity in human HT-29 cells assessed as inhibition of TSZ induced necroptosis incubated for 3 hrs followed by TSZ stimulation by celltiter-glo luminescent cell viability assay. In kind it is functional, cell-based. Conditions: HT-29, 3 h.
Data set [22] has as its target T1, Mixed lineage kinase domain-like protein (Homo sapiens). As to the kind of experiment: Inhibition of FLAG-tagged human MLKL in human HT-29 cells assessed as inhibition of TSZ (TNFalpha, Smac mimetic and z-VAD-FMK) induced MLKL phosphorylation by measuring dispersed phosphorylated MLKL in cytoplasm at 1 uM and measured after 8 hrs by Hoechst 33342 staining based immunofluorescence analysis. In kind it is cell-based.

SMILES strings stand for the structures. Calls of active or inactive are those of the source. Where only a bound is given, the exact number is not on record here.

In general, EC50 refers to the midpoint of the concentration-response curve. One may read the half-life as the time needed for the level to fall by half in the phase considered. Turning to `Cn1c(=O)c2c(nc(S(C)(=O)=O)n2C)n(CC#Cc2cccc(O)c2)c1=O`, the EC50 in the data set on HT-29 [1] is 2 nM. Also, the inhibition result (in data set [2]; with HT-29 [3]; in the data set with HT-29 [4]) was “Active” each time. For the same molecule, the half-life in data set [5] turned out to be 20 min.

Take `CCC(C)(C)C(=O)N(O)Cc1ccccc1`: the inhibition result (in data set [6]; in the data set with MEF; in data set [7]) was “Active” in each case.

A word on the residual activity: it is the signal under treatment as a percentage of the control signal. For the molecule `Cc1ccc(C(=O)Nc2ccc(CN3CCN(C)CC3)c(C(F)(F)F)c2)cc1C#Cc1cnc2cccnn12` [PONATINIB], the EC50 in the data set on HT-29 [1] worked out at 440 nM. In addition, the residual activity worked out at 0.97% in data set [8], 0.31% in data set [9], 3.8% in data set [10] and 0.4% in data set [11].

Take `Cc1ccc(CCC(=O)Nc2c(Cl)n(CC#Cc3ccc(O)cc3)c(=O)n(C)c2=O)cc1`: in the data set with HT-29 [1], the EC50 is 222 nM. Moreover, the residual activity was determined as 90.5% in data set [8], 102% in data set [9], 92.1% in [10] and 96.1% in [11].

Regarding `COc1nccnc1NSc1ccc(NC(=O)/C=C/c2ccc([N+](=O)[O-])s2)cc1`, the inhibition entry (in data set [12]; in the data set on HT-29 [4]) was “Active” in each case.

In the case of `COc1ccc(C#CCn2c(Cl)c(NC(=O)CCc3ccc(C)cc3)c(=O)n(C)c2=O)cc1Cn1cccc(OC)c1=O`, the EC50 in the data set with HT-29 [1] amounted to 85 nM. The residual activity in [8] is 96.3%; in data set [9] it was 99.3%; in data set [10], 111%; in [11] it was 101%.

For the molecule `Cc1ccc(CCC(=O)Nc2c(Cl)n(CC#Cc3ccc(O)c(Cn4ccccc4=O)c3)c(=O)n(C)c2=O)cc1`, the EC50 was 82 nM with HT-29 [1]; above 10000 nM in the data set on HT-29 [13]; 584 nM in the data set on HT-29 [14]; 180 nM in the data set on HT-29 [15]; 188 nM in the data set with HT-29 [21]. Also, the “fold change (FC)” value in [16] was 150. Moreover, the outcome in [17] and in [18] was Active. The inhibition result (in data set [19]; in data set [20]; in the data set with HT-29 [4]) was “Active” throughout. The residual activity is 100% in data set [8], 99.8% in [9] and 82.6% in [11].

For the molecule `C=CC(=O)Nc1c(Cl)n(CC#Cc2cccc(O)c2)c(=O)n(C)c1=O`, the concentration for a half-maximal effect (EC50) with HT-29 [1] was 950 nM. For the same molecule, the residual activity in data set [8] stood at 102%; in data set [9] it was 108%; in data set [10], 84.2%; in data set [11] it was 86.2%.

Consider `COc1cccn(Cc2cc(C#CCn3c(Cl)c(NC(=O)CCc4ccc(C)cc4)c(=O)n(C)c3=O)ccc2O)c1=O`, for which the EC50 in the data set with HT-29 [1] stood at 31 nM. Besides, the “fold change (FC)” value in data set [16] was 150. Besides, the outcome in [18] was Active. Also, the inhibition result (in data set [19]; in data set [20]; in data set [22]; in the data set on HT-29 [4]) was “Active” each time. The residual activity in data set [8] was found to be 110%; in data set [9], 110%; in data set [10], 117%; in data set [11], 101%.

(Values after ChEMBL document CHEMBL5108050, “Discovery of a New Class of Uracil Derivatives as Potential Mixed Lineage Kinase Domain-like Protein (MLKL) Inhibitors” (J Med Chem, 2022).)
